US12263248B2, “Compounds and compositions for intracellular delivery of therapeutic agents” (ModernaTX, Inc., priority 2018, dated 2025)

Experiments:
luciferase (Luc) mRNA [1] = assay: Luc expression, whole body bioluminescence after intravenous administration to mice; format: in vivo; details: for 6 h Lipid/MC3 Avg. Luc Expression / Fold increase AUC Lipid/MC3 / AUC (h * p/s): Table 3C; for AUC (h * p/s): Luc; for Total Flux 3 hours / Total Flux 6 hours / Total Flux 24 hours: mice, i.v., 0.5 mg/kg, Luc mRNA
Procedure, shortened: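 Luc mRNA nanoparticle formulations given intravenously to mice (n=6) at 0.5 mg/kg; whole-body bioluminescence imaged at 3, 6 and 24 h. CD-1 mice received IP D-luciferin (200 μL of 15 mg/mL) 15 min before imaging; total flux quantified by region of interest.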

[2] = Particle size and polydispersity index of nanoparticle compositions (Zetasizer Nano ZS); format: physicochemical; details: Table 1A; for Size (nm): lipid:DSPC:cholesterol:PEG-DMG 50:10:38.5:1.5 mol %
Procedure, shortened: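 In 1×PBS, the compositions were sized on a Zetasizer Nano ZS, which also reported their polydispersity index.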

luciferase (Luc) mRNA [3] = assay: Luc expression in liver, lung, spleen and femur 6 hours after intravenous administration; format: in vivo; details: mice, 0.5 mpk; for Total Flux Liver / Total Flux Lung / Total Flux Spleen: intravenous
Procedure, shortened: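 LNP-formulated mRNA given IV to mice (n=3) at 0.5 mpk; at 6 h, bioluminescence imaged ex vivo 15 min after IP D-luciferin (15 mg/mL, 200 μL), organs imaged within 25 min. Values are total flux by region of interest.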

[4] = Encapsulation efficiency of RNA (QUANT-IT RIBOGREEN RNA assay); format: physicochemical; details: Table 1A
Procedure, shortened: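 RiboGreen fluorescence (ex ~480, em ~520 nm) compared between intact samples and Triton X-100-lysed samples after 15 min at 37 °C in TE buffer, pH 7.5. Percent free RNA is the blank-corrected intact/disrupted ratio.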

[5] = Apparent (surface) pKa of the LNP formulation (TNS assay); format: physicochemical; details: Table 1A
Method: Using sodium hydroxide (1 M) and hydrochloric acid (1 M), 21 unique buffers were prepared from the master buffer stock at pH values between about 3 and 12. Next, a stock of 300 μM 6-(p-Toluidino)-2-naphthalenesulfonic acid sodium salt (TNS reagent) in DMSO was prepared and the LNP was mixed with the desired formulation buffer at a concentration of 0.04 mg/mL mRNA. This assay has been validated in 1× PBS and 20 mM Tris w/8% sucrose buffer. The buffer solutions at various pH values were added to a 96-well plate in triplicate for each pH. To each well was added 3.26 μL of LNP sample at a mRNA concentration of 0.04 mg/mL and 2.0 μL of 300 μM TNS reagent solution. After careful mixing, the resulting fluorescence values were read for each plate to create a sigmoidal plot of the fluorescence values vs. buffer pH. The […] inflection point of this curve is the apparent pKa of the LNP formulation.

Row | PDI [2] | Size (nm) [2] | EE (%) [4] | pKa [5] | SMILES | 6 h Lipid/MC3 Avg. Luc Expression (luciferase (Luc) mRNA [1]; i.v. administration) | Fold increase AUC Lipid/MC3 (luciferase (Luc) mRNA [1]; i.v. administration) | AUC (h * p/s) (luciferase (Luc) mRNA [1]; i.v. administration) | Total Flux 3 hours (luciferase (Luc) mRNA [1]) | Total Flux 6 hours (luciferase (Luc) mRNA [1]) | Total Flux 24 hours (luciferase (Luc) mRNA [1]) | Total Flux Liver (luciferase (Luc) mRNA [3]) | Total Flux Lung (luciferase (Luc) mRNA [3]) | Total Flux Spleen (luciferase (Luc) mRNA [3]) | Flux in the spleen (luciferase (Luc) mRNA [3]; i.v., in words) | Fold increase in total body Luc Flux relative to MC3 at 6 h (luciferase (Luc) mRNA [1]; Table 3A, i.v. administration)
1 | 0.230 | 91.7 nm | 98.96% | 7.27 | CCCCCCCCCOC(=O)CCCCCCCN(CCCCCCCC(=O)OC(CCCCCCCC)CCCCCCCC)CCN1CCN(C)CC1 [Compound 101, Heptadecan-9-yl 8-((2-(4-methylpiperazin-1-yl)ethyl)(8-(nonyloxy)-8-oxooctyl)amino)octanoate] | 0.019 | 0.022 | 1.8E+09 h * p/s | 1.89E+08 | 1.41E+08 | 3.64E+06 | 1.27E+07 | 1.77E+05 | 5.60E+06 |  | 
2 | 0.160 | 78.8 nm | 90.77% | 6.13 | CCCCCCCCCOC(=O)CCCCCCCN(CCCCCCCC(=O)OC(CCCCCCCC)CCCCCCCC)CCN1CCOCC1 [Compound 103, Heptadecan-9-yl 8-((2-morpholinoethyl)(8-(nonyloxy)-8-oxooctyl)amino)octanoate] | 0.250 | 0.291 | 2.4E+10 h * p/s | 2.68E+09 | 1.82E+09 | 9.45E+07 | 8.48E+07 | 2.06E+05 | 2.65E+06 |  | 
3 | 0.08 | 72.1 nm | 98% | 6.14 | CCCCCCCCCOC(=O)CCCCCCCN(CCO)CCCCCCCC(=O)Oc1ccc(CCCCC)c(CCCCC)c1 [Compound 118, 3,4-Dipentylphenyl 8-((2-hydroxyethyl)(8-(nonyloxy)-8-oxooctyl)amino)octanoate] |  |  |  | 1.46E+09 | 1.16E+09 | 4.37E+07 | 1.72E+08 | 1.98E+06 | 2.49E+07 |  | 
4 | 0.1 | 61.3 nm | 97.7% | 5.89 | CCCCCCCCC(CCCCCCCC)OC(=O)CCCCCCCN(C)CCCCCCCC(=O)OC(CCCCCCCC)CCCCCCCC [Compound 124, Di(heptadecan-9-yl) 8,8′-(methylazanediyl)dioctanoate] |  |  |  | 6.62E+07 | 3.91E+09 | 5.13E+06 | 8.46E+06 | 5.67E+04 | 8.06E+04 | lowest | 
5 | 0.18 | 77.4 nm | 96.8% | 6.00 | CCCCCCCCCOC(=O)CCCN(C)CCCCCCCC(=O)OC(CCCCCCCC)CCCCCCCC [Compound 126, Heptadecan-9-yl 8-(methyl(4-(nonyloxy)-4-oxobutyl)amino)octanoate] |  |  |  | 7.59E+09 | 1.09E+10 | 1.40E+08 | 7.41E+08 | 2.68E+06 | 1.87E+07 |  | 
6 | 0.19 | 110.4 nm | 89.5% | 6.98 | CCCCCCCCCOC(=O)CCCCCCCN(CCO)CCCCCCCCCOP(=O)(OCCCCCCCCC)OCCCCCCCCC [Compound 127, Nonyl 8-((9-((bis(nonyloxy)phosphoryl)oxy)nonyl)(2-hydroxyethyl)amino)octanoate] |  |  |  | 3.81E+09 | 2.09E+09 | 4.56E+08 | 1.94E+08 | 5.26E+06 | 3.21E+08 |  | 0.094
